Measured values as given in patent publication US11311522B1 (Cavion, Inc., priority 2018, dated 2022).

Assay: PN002/Part I: safety and tolerability
Type: in vivo, human
Experimental: All adverse events were mild or moderate in intensity. No serious adverse events were reported. […] Treatment periods were separated by a minimum 1-week washout period after administration of the 2 mg dose in Period 1 and by a minimum 2-week washout after subsequent treatment periods. Clinical safety was monitored throughout the study by adverse events, clinical laboratory tests, vital signs, ECGs, and ECG telemetry. *The study was planned to include 8 subjects. A ninth subject was randomized to replace a subject who was discontinued after Period 1 (because of a prolonged QTc interval after administration of the 2 mg dose, which was considered by the investigator to be unrelated to the study drug). […] The most frequently reported adverse events were relaxation, fuzzy head, headache, lightheadedness, dizziness, and mood alteration, all of which were transient and generally mild or moderate in severity.

CC(C)c1ccc(CC(=O)N[C@H](C)c2ccc(OCC(F)(F)F)cn2)cc1 [CX-8998]
At least 1 adverse event (2 mg): 5 (71.4) n (%)
Breathing difficult (2 mg): 0 n (%)
Dizziness (2 mg): 0 n (%)
Dizziness upon standing (2 mg): 0 n (%)
Dry mouth (2 mg): 0 n (%)
Dry throat (2 mg): 0 n (%)
Eye Disorders (2 mg): 0 n (%)
Feeling drunk (2 mg): 0 n (%)
Feeling hot (2 mg): 0 n (%)
Feeling of relaxation (2 mg): 1 (14.3) n (%)
Feeling of warmth (2 mg): 0 n (%)
Floating feeling (2 mg): 1 (14.3) n (%)
Fuzzy head (2 mg): 0 n (%)
Gastrointestinal Disorders (2 mg): 1 (14.3) n (%)
Headache (2 mg): 2 (28.6) n (%)
Lightheadedness (2 mg): 0 n (%)
Nasal congestion (2 mg): 0 n (%)
Nervous System Disorders (2 mg): 2 (28.6) n (%)
Paraesthesia of fingers (2 mg): 0 n (%)
Respiratory, Thoracic and Mediastinal Disorders (2 mg): 1 (14.3) n (%)
Tiredness (2 mg): 0 n (%)
Vision blurred (2 mg): 0 n (%)
Visual disturbance (2 mg): 0 n (%)
At least 1 adverse event (4 mg): 5 (83.3) n (%)
Breathing difficult (4 mg): 0 n (%)
Dizziness (4 mg): 0 n (%)
Dizziness upon standing (4 mg): 0 n (%)
Dry mouth (4 mg): 0 n (%)
Dry throat (4 mg): 0 n (%)
Eye Disorders (4 mg): 1 (16.7) n (%)
Feeling drunk (4 mg): 0 n (%)
Feeling hot (4 mg): 0 n (%)
Feeling of relaxation (4 mg): 1 (16.7) n (%)
Feeling of warmth (4 mg): 0 n (%)
Floating feeling (4 mg): 1 (16.7) n (%)
Fuzzy head (4 mg): 1 (16.7) n (%)
Headache (4 mg): 3 (50.0) n (%)
Lightheadedness (4 mg): 1 (16.7) n (%)
Nasal congestion (4 mg): 1 (16.7) n (%)
Nervous System Disorders (4 mg): 5 (83.3) n (%)
Paraesthesia of fingers (4 mg): 0 n (%)
Respiratory, Thoracic and Mediastinal Disorders (4 mg): 1 (16.7) n (%)
Tiredness (4 mg): 1 (16.7) n (%)
Vision blurred (4 mg): 1 (16.7) n (%)
Visual disturbance (4 mg): 0 n (%)
At least 1 adverse event (8 mg): 6 (100) n (%)
Breathing difficult (8 mg): 1 (16.7) n (%)
Dizziness (8 mg): 2 (33.3) n (%)
Dizziness upon standing (8 mg): 1 (16.7) n (%)
Dry mouth (8 mg): 4 (66.7) n (%)
Dry throat (8 mg): 1 (16.7) n (%)
Eye Disorders (8 mg): 2 (33.3) n (%)
Feeling drunk (8 mg): 0 n (%)
Feeling hot (8 mg): 2 (33.3) n (%)
Feeling of relaxation (8 mg): 0 n (%)
Feeling of warmth (8 mg): 0 n (%)
Floating feeling (8 mg): 1 (16.7) n (%)
Fuzzy head (8 mg): 2 (33.3) n (%)
Gastrointestinal Disorders (8 mg): 4 (66.7) n (%)
Headache (8 mg): 3 (50.0) n (%)
Lightheadedness (8 mg): 3 (50.0) n (%)
Nasal congestion (8 mg): 1 (16.7) n (%)
Nervous System Disorders (8 mg): 6 (100.0) n (%)
Paraesthesia of fingers (8 mg): 0 n (%)
Respiratory, Thoracic and Mediastinal Disorders (8 mg): 3 (50.0) n (%)
Tiredness (8 mg): 2 (33.3) n (%)
Vision blurred (8 mg): 1 (16.7) n (%)
Visual disturbance (8 mg): 1 (16.7) n (%)
At least 1 adverse event (12 mg): 5 (83.3) n (%)
Breathing difficult (12 mg): 0 n (%)
Dizziness (12 mg): 0 n (%)
Dizziness upon standing (12 mg): 0 n (%)
Dry mouth (12 mg): 1 (16.7) n (%)
Dry throat (12 mg): 0 n (%)
Eye Disorders (12 mg): 1 (16.7) n (%)
Feeling drunk (12 mg): 1 (16.7) n (%)
Feeling hot (12 mg): 0 n (%)
Feeling of relaxation (12 mg): 2 (33.3) n (%)
Feeling of warmth (12 mg): 0 n (%)
Floating feeling (12 mg): 0 n (%)
Fuzzy head (12 mg): 0 n (%)
Headache (12 mg): 3 (50.0) n (%)
Lightheadedness (12 mg): 0 n (%)
Nasal congestion (12 mg): 0 n (%)
Nervous System Disorders (12 mg): 4 (66.7) n (%)
Paraesthesia of fingers (12 mg): 0 n (%)
Respiratory, Thoracic and Mediastinal Disorders (12 mg): 1 (16.7) n (%)
Tiredness (12 mg): 0 n (%)
Vision blurred (12 mg): 1 (16.7) n (%)
Visual disturbance (12 mg): 0 n (%)
At least 1 adverse event (18 mg): 6 (100.0) n (%)
Breathing difficult (18 mg): 2 (33.3) n (%)
Dizziness (18 mg): 2 (33.3) n (%)
Dizziness upon standing (18 mg): 1 (16.7) n (%)
Dry mouth (18 mg): 0 n (%)
Dry throat (18 mg): 1 (16.7) n (%)
Eye Disorders (18 mg): 2 (33.3) n (%)
Feeling drunk (18 mg): 1 (16.7) n (%)
Feeling hot (18 mg): 2 (33.3) n (%)
Feeling of relaxation (18 mg): 2 (33.3) n (%)
Feeling of warmth (18 mg): 2 (33.3) n (%)
Floating feeling (18 mg): 2 (33.3) n (%)
Fuzzy head (18 mg): 2 (33.3) n (%)
Gastrointestinal Disorders (18 mg): 3 (50.0) n (%)
Headache (18 mg): 2 (33.3) n (%)
Lightheadedness (18 mg): 1 (16.7) n (%)
Nasal congestion (18 mg): 0 n (%)
Nervous System Disorders (18 mg): 6 (100.0) n (%)
Paraesthesia of fingers (18 mg): 2 (33.3) n (%)
Respiratory, Thoracic and Mediastinal Disorders (18 mg): 2 (33.3) n (%)
Tiredness (18 mg): 1 (16.7) n (%)
Vision blurred (18 mg): 0 n (%)
Visual disturbance (18 mg): 2 (33.3) n (%)
At least 1 adverse event (any dose): 9 (100.0) n (%)
Breathing difficult (any dose): 2 (22.2) n (%)
Dizziness (any dose): 3 (33.3) n (%)
Dizziness upon standing (any dose): 2 (22.2) n (%)
Dry mouth (any dose): 4 (44.4) n (%)
Dry throat (any dose): 2 (22.2) n (%)
Eye Disorders (any dose): 4 (44.4) n (%)
Feeling drunk (any dose): 2 (22.2) n (%)
Feeling hot (any dose): 2 (22.2) n (%)
Feeling of relaxation (any dose): 5 (55.6) n (%)
Feeling of warmth (any dose): 2 (22.2) n (%)
Floating feeling (any dose): 2 (22.2) n (%)
Fuzzy head (any dose): 3 (33.3) n (%)
Gastrointestinal Disorders (any dose): 6 (66.7) n (%)
Headache (any dose): 7 (77.8) n (%)
Lightheadedness (any dose): 4 (44.4) n (%)
Nasal congestion (any dose): 2 (22.2) n (%)
Nervous System Disorders (any dose): 8 (88.8) n (%)
Paraesthesia of fingers (any dose): 2 (22.2) n (%)
Respiratory, Thoracic and Mediastinal Disorders (any dose): 4 (44.4) n (%)
Tiredness (any dose): 3 (33.3) n (%)
Vision blurred (any dose): 3 (33.3) n (%)
Visual disturbance (any dose): 3 (33.3) n (%)
Tolerability (single doses up to 18 mg): generally well tolerated
